Source: the supplement of paper PMC10307832

Assays:
Experiment in all cases: relative viability (nuclei count vs DMSO), 5 days (fraction); higher = more cells survive
AZD6482 + Dasatinib = compound: Cc1cc([C@@H](C)Nc2ccccc2C(=O)O)c2nc(N3CCOCC3)cc(=O)n2c1 [AZD6482] + Cc1nc(Nc2ncc(C(=O)Nc3c(C)cccc3Cl)s2)cc(N2CCN(CCO)CC2)n1 [Dasatinib] (partner 0.075 µM)
Summary of the method: (§1)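 After 5 days of treatment, lung cancer cells in 1536-well plates were fixed and stained in a single step (final 0.05% Triton X-100, 1% formaldehyde, 1 ug/ml Hoechst) and their nuclei counted on 4× images. Treatment had been applied by pin tool the day after seeding as one drug alone or as a fixed anchor-drug dose with five library-drug doses (not always all listed) in √10 steps. Relative viability is the nuclei count of treated wells divided by that of vehicle wells, and values are medians of duplicate plates.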

[1] = compound: COc1cc2nc(N3CCCN(C)CC3)nc(NC3CCN(Cc4ccccc4)CC3)c2cc1OC + Nc1ncn([C@H]2C[C@H](O)[C@@H](CO)O2)c(=O)n1 [Decitabine] (partner 2 µM)
Summary of the method: as §1

AZD6482 + Luminespib = compound: Cc1cc([C@@H](C)Nc2ccccc2C(=O)O)c2nc(N3CCOCC3)cc(=O)n2c1 [AZD6482] + CCNC(=O)c1noc(-c2cc(C(C)C)c(O)cc2O)c1-c1ccc(CN2CCOCC2)cc1 [Luminespib] (partner 0.01 µM)
Summary of the method: as §1

[2] = compound: COc1cc2nc(N3CCCN(C)CC3)nc(NC3CCN(Cc4ccccc4)CC3)c2cc1OC + CC(C)C[C@H](NC(=O)[C@H](Cc1ccccc1)NC(=O)c1cnccn1)B(O)O [Bortezomib] (partner 0.002 µM)
Summary of the method: as §1

Cell Line	relative viability (AZD6482 + Dasatinib; first compound 0.08 µM)	relative viability (AZD6482 + Dasatinib; first compound 0.253 µM)	relative viability (AZD6482 + Dasatinib; first compound 0.8 µM)	relative viability (AZD6482 + Dasatinib; first compound 2.53 µM)	relative viability (AZD6482 + Dasatinib; first compound 8 µM)	relative viability ([1]; first compound 0.2 µM)	relative viability ([1]; first compound 0.6325 µM)	relative viability ([1]; first compound 2 µM)	relative viability ([1]; first compound 6.325 µM)	relative viability (AZD6482 + Luminespib; first compound 0.08 µM)	relative viability (AZD6482 + Luminespib; first compound 0.253 µM)	relative viability (AZD6482 + Luminespib; first compound 0.8 µM)	relative viability (AZD6482 + Luminespib; first compound 2.53 µM)	relative viability (AZD6482 + Luminespib; first compound 8 µM)	relative viability ([2]; first compound 0.2 µM)	relative viability ([2]; first compound 0.6325 µM)	relative viability ([2]; first compound 2 µM)	relative viability ([2]; first compound 6.325 µM)
NCI-H460	0.414	0.404	0.562	0.241	0.215	0.484	0.449	0.431	0.389	0.0355	0.0327	0.0426	0.0315	0.0378	1.04	1.05	1.14	0.864
NCI-H520	0.154	0.153	0.138	0.144	0.166	0.495	0.454	0.534	0.214	0.208	0.281	0.199	0.206	0.211	0.792	0.623	0.777	0.217
NCI-H596	0.7	0.586	0.601	0.514	0.642	1.13	0.934	0.958	1.03	0.92	0.815	0.848	0.812	0.801	1.21	1.17	0.959	0.763
NCI-H647	0.133	0.152	0.153	0.0999	0.096	0.421	0.356	0.394	0.28	0.167	0.121	0.147	0.193	0.146	0.967	1	1.35	0.449
NCI-H650	0.446		0.453	0.292	0.319	0.323	0.307	0.392	0.279	0.657		0.898	0.647	0.509	0.752	0.739	1.05	0.694
NCI-H661	0.75	0.857	0.967	0.502	0.489	0.58	0.569	0.588	0.689	0.959	0.945	0.968	0.635	0.918	0.813	0.793	0.935	0.868
NCI-H727	0.401	0.41	0.41	0.266	0.395	0.756	1.02	0.865	0.726	0.245	0.348	0.786	0.292	0.345	0.756	0.893	0.751	0.618
NCI-H838	0.24	0.248	0.257	0.218	0.28	0.45	0.466	0.508	0.474	0.246	0.355	0.265	0.193	0.332	0.858	1.02	0.73	0.721
NCI-H1355	0.479	0.496	0.766	0.492	0.456	0.349	0.343	0.343	0.375	0.53	0.556	0.702	0.422	0.52	1.23	1.21	1.29	1.1
